For test [1], the system named is L1210. The test can be described thus: Antitumor activity against L1210 tumor cells tested in vivo; NA means inactive. The test is classed as functional, organism-based. The following applies: Mus musculus.
Test [2] concerns L1210. In words: Antitumor activity against L1210 tumor cells in vivo and the value is expressed as T / C ([…]) at a dose of 10000 ug/kg. The test is classed as functional, Mus musculus.
In test [3] the target is T1, Purine nucleoside phosphorylase (Bos taurus) (UniProt P55859).
T1 sequence (whole entry): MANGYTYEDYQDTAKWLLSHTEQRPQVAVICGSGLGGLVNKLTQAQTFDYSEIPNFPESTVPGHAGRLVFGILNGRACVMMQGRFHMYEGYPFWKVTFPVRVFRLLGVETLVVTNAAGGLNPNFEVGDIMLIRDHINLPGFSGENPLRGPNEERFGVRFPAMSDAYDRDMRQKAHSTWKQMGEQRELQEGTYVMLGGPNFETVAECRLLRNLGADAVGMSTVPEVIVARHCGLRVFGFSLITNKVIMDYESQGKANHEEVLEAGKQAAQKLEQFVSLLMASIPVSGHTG
In words: Antitumor activity by inhibiting purine nucleoside phosphorylase (PNPase) enzyme; NA means inactive.

Test [4] concerns L1210. In words: Antitumor activity against L1210 tumor cell growth in vitro and the value is expressed as % inhibition at a dose of 1 ug/mL. The test is classed as functional. The following applies: Mus musculus.

Calls of active or inactive are those of the source. No cut-off for these calls is given here.

In the case of `CC(O)[C@H]1O[C@@H](n2cnc3ncnc(O)c32)[C@H](O)[C@@H]1O` (stereo not given in full), the T/C entry in the test on L1210 [1] is “inactive”.

What is called inhibition is the relative decrease from the control value, in per cent. `CC(O)[C@H]1O[C@@H](n2cnc3c(S)ncnc32)[C@H](O)[C@@H]1O` (stereo not given in full) gave a T/C with L1210 [2] of 146. Also, the inhibition result in test [3] was “inactive”. Besides, 1 µg/mL produced 50% inhibition in the test with L1210 [4].

With `CC(O)[C@H]1O[C@@H](n2cnc3c(O)ncnc32)[C@H](O)[C@@H]1O` (stereo not given in full), the inhibition entry in test [3] was “inactive”.

The record behind these values is ChEMBL document CHEMBL1122381, “Synthesis and antitumor activity of 7- and 9-(6'-deoxy-alpha-L-talofuranosyl) hypoxanthine and 9-(6'-deoxy-alpha-L-talofuranosyl)-6-thiopurine” (1983).
